According to patent publication US8247211B2, “Glycopeptide antibiotics” (American Cyanamid Company, priority 2001, dated 2012):
Values after ≈ are worked out from the molar mass of the structure shown. Where two headings read alike, the source gives them in different places.

Assays:
Assay in all cases: In vitro antibacterial evaluation: minimum inhibitory concentration (MIC), broth dilution method
Assay type in all cases: cell-based
Enterococcus sp. = system: Enterococcus sp.
Outline: (§1)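 Susceptibility determined by NCCLS-recommended broth dilution (M7-A2), Muller-Hinton II […]. Concentration span 64-0.06 μg/mL, inoculum 5×10^5 CFU/mL. Isolates include strains resistant to methicillin, penicillin and/or vancomycin.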

Staphylococcus sp. = system: Staphylococcus sp.
Outline: as §1

Streptococcus sp. = system: Streptococcus sp.
Outline: as §1

Escherichia coli = system: Escherichia coli
[1] = broth dilution, 18 hours at 35° C.

## Cyclo[3-[[2-(2,3,4,6-tetra-O-benzoylhexopyranosyl)amino]-1,3-benzoxazol-5-yl]alanyl-3-(2-iminoimidazolidin-4-yl)seryl-3-(3-hexopyranosyl-2-iminoimidazolidin-4-yl)seryl-serylglycyl-β-methylphenylalanyl] [Example 44]
Enterococcus sp.
  MIC Enterococcus avium (GC 4558): 4 µg/mL
  MIC Enterococcus faecalis (ATCC 29212): 16 µg/mL
  MIC Enterococcus faecalis (GC 2242): 16 µg/mL
  MIC Enterococcus faecalis (GC 2691): 16 µg/mL
  MIC Enterococcus faecalis (GC 3059): 32 µg/mL
  MIC Enterococcus faecalis (GC 4552): 16 µg/mL
  MIC Enterococcus faecalis (GC 4553): 8 µg/mL
  MIC Enterococcus faecalis (GC 4554): 32 µg/mL
  MIC Enterococcus faecalis (GC 6189): 16 µg/mL
  MIC Enterococcus faecium (GC 2243): 8 µg/mL
  MIC Enterococcus faecium (GC 4556): 32 µg/mL
  MIC Enterococcus faecium (GC 4557): 8 µg/mL
Staphylococcus sp.
  MIC Coagulase Negative Staphylococcus (GC 4547): 64 µg/mL
  MIC Coagulase Negative Staphylococcus (GC 4548): 8 µg/mL
  MIC Coagulase Negative Staphylococcus (GC 4549): 2 µg/mL
  MIC Coagulase Negative Staphylococcus (GC 4551): 16 µg/mL
  MIC Coagulase Negative Staphylococcus (GC 6257): 8 µg/mL
  MIC Staphylococcus aureus (ATCC 29213): 64 µg/mL
  MIC Staphylococcus aureus (GC 1131): 64 µg/mL
  MIC Staphylococcus aureus (GC 3051): 64 µg/mL
  MIC Staphylococcus aureus (GC 3053): 32 µg/mL
  MIC Staphylococcus aureus (GC 4541): 64 µg/mL
  MIC Staphylococcus aureus (GC 4542): 64 µg/mL
  MIC Staphylococcus aureus (GC 4544): 16 µg/mL
  MIC Staphylococcus aureus (GC 4545): 16 µg/mL
  MIC Staphylococcus aureus SMITH (GC 4543): 32 µg/mL
  MIC Staphylococcus aureus-SMITH (GC 4543): 32 µg/mL
  MIC Staphylococcus haemolyticus (GC 4546): 64 µg/mL
Streptococcus sp.
  MIC Streptococcus agalactiae (GC 4564): 16 µg/mL
  MIC Streptococcus pneumoniae (ATCC 6301): 8 µg/mL
  MIC Streptococcus pneumoniae (GC 1894): 16 µg/mL
  MIC Streptococcus pneumoniae (GC 4565): 32 µg/mL
  MIC Streptococcus pyogenes (GC 4563): 4 µg/mL
Escherichia coli
  MIC Escherichia coli (ATCC 25922): >64 µg/mL
  MIC Escherichia coli (GC 4559): >64 µg/mL
  MIC Escherichia coli (GC 4560): 64 µg/mL

## CC(c1ccccc1)C1NC(=O)CNC(=O)C(CO)NC(=O)C(C(O)C2CNC(=N)N2C2OC(CO)C(O)C(O)C2O)NC(=O)C(C(O)C2CNC(=N)N2)NC(=O)C(Cc2ccc3oc(C=C(c4ccccc4)c4ccccc4)nc3c2)NC1=O (stereo not drawn) [Example 39, Cyclo[3-[2-(2,2-diphenylethenyl)-1,3-benzoxazol-5-yl]alanyl-3-(2-iminoimidazolidin-4-yl)seryl-3-(3-hexopyranosyl-2-iminoimidazolidin-4-yl)serylserylglycyl-β-methylphenylalanyl]]
Enterococcus sp.; Enterococcus avium (GC 4558), broth dilution, 18 hours at 35° C.
  MIC Enterococcus avium (GC 4558): 8 µg/mL (≈ 6.81 µM)
Enterococcus sp.; Enterococcus faecalis (ATCC 29212), broth dilution, 18 hours at 35° C.
  MIC Enterococcus faecalis (ATCC 29212): 16 µg/mL (≈ 13.6 µM)
Enterococcus sp.; Enterococcus faecalis (GC 2242), broth dilution, 18 hours at 35° C.
  MIC Enterococcus faecalis (GC 2242): 16 µg/mL (≈ 13.6 µM)
Enterococcus sp.; Enterococcus faecalis (GC 2691), broth dilution, 18 hours at 35° C.
  MIC Enterococcus faecalis (GC 2691): 16 µg/mL (≈ 13.6 µM)
Enterococcus sp.; Enterococcus faecalis (GC 3059), broth dilution, 18 hours at 35° C.
  MIC Enterococcus faecalis (GC 3059): 16 µg/mL (≈ 13.6 µM)
Enterococcus sp.; Enterococcus faecalis (GC 4552), broth dilution, 18 hours at 35° C.
  MIC Enterococcus faecalis (GC 4552): 16 µg/mL (≈ 13.6 µM)
Enterococcus sp.; Enterococcus faecalis (GC 4553), broth dilution, 18 hours at 35° C.
  MIC Enterococcus faecalis (GC 4553): 8 µg/mL (≈ 6.81 µM)
Enterococcus sp.; Enterococcus faecalis (GC 4554), broth dilution, 18 hours at 35° C.
  MIC Enterococcus faecalis (GC 4554): 32 µg/mL (≈ 27.3 µM)
Enterococcus sp.; Enterococcus faecalis (GC 6189), broth dilution, 18 hours at 35° C.
  MIC Enterococcus faecalis (GC 6189): 16 µg/mL (≈ 13.6 µM)
Enterococcus sp.; Enterococcus faecium (GC 2243), broth dilution, 18 hours at 35° C.
  MIC Enterococcus faecium (GC 2243): 8 µg/mL (≈ 6.81 µM)
Enterococcus sp.; Enterococcus faecium (GC 4556), broth dilution, 18 hours at 35° C.
  MIC Enterococcus faecium (GC 4556): 32 µg/mL (≈ 27.3 µM)
Enterococcus sp.; Enterococcus faecium (GC 4557), broth dilution, 18 hours at 35° C.
  MIC Enterococcus faecium (GC 4557): 8 µg/mL (≈ 6.81 µM)
Enterococcus sp.; [1]
  MIC Enterococcus avium (GC 4558): 8 µg/mL (≈ 6.81 µM)
  MIC Enterococcus faecalis (ATCC 29212): 16 µg/mL (≈ 13.6 µM)
  MIC Enterococcus faecalis (GC 2242): 16 µg/mL (≈ 13.6 µM)
  MIC Enterococcus faecalis (GC 2691): 16 µg/mL (≈ 13.6 µM)
  MIC Enterococcus faecalis (GC 3059): 16 µg/mL (≈ 13.6 µM)
  MIC Enterococcus faecalis (GC 4552): 16 µg/mL (≈ 13.6 µM)
  MIC Enterococcus faecalis (GC 4553): 8 µg/mL (≈ 6.81 µM)
  MIC Enterococcus faecalis (GC 4554): 32 µg/mL (≈ 27.3 µM)
  MIC Enterococcus faecalis (GC 6189): 16 µg/mL (≈ 13.6 µM)
  MIC Enterococcus faecium (GC 2243): 8 µg/mL (≈ 6.81 µM)
  MIC Enterococcus faecium (GC 4556): 32 µg/mL (≈ 27.3 µM)
  MIC Enterococcus faecium (GC 4557): 8 µg/mL (≈ 6.81 µM)
Staphylococcus sp.; [1]
  MIC Coagulase Negative Staphylococcus (GC 4547): 8 µg/mL (≈ 6.81 µM)
  MIC Coagulase Negative Staphylococcus (GC 4548): 8 µg/mL (≈ 6.81 µM)
  MIC Coagulase Negative Staphylococcus (GC 4549): 4 µg/mL (≈ 3.41 µM)
  MIC Coagulase Negative Staphylococcus (GC 4551): 8 µg/mL (≈ 6.81 µM)
  MIC Coagulase Negative Staphylococcus (GC 6257): 4 µg/mL (≈ 3.41 µM)
  MIC Staphylococcus aureus SMITH (GC 4543): 16 µg/mL (≈ 13.6 µM)
  MIC Staphylococcus haemolyticus (GC 4546): 8 µg/mL (≈ 6.81 µM)
Staphylococcus sp.; strain SMITH GC 4543, broth dilution, 18 hours at 35° C.
  MIC Staphylococcus aureus-SMITH (GC 4543): 16 µg/mL (≈ 13.6 µM)
Streptococcus sp.; Streptococcus agalactiae (GC 4564), broth dilution, 18 hours at 35° C.
  MIC Streptococcus agalactiae (GC 4564): 16 µg/mL (≈ 13.6 µM)
Streptococcus sp.; Streptococcus pneumoniae (ATCC 6301), broth dilution, 18 hours at 35° C.
  MIC Streptococcus pneumoniae (ATCC 6301): 8 µg/mL (≈ 6.81 µM)
Streptococcus sp.; Streptococcus pneumoniae (GC 1894), broth dilution, 18 hours at 35° C.
  MIC Streptococcus pneumoniae (GC 1894): 8 µg/mL (≈ 6.81 µM)
Streptococcus sp.; Streptococcus pneumoniae (GC 4565), broth dilution, 18 hours at 35° C.
  MIC Streptococcus pneumoniae (GC 4565): 16 µg/mL (≈ 13.6 µM)
Streptococcus sp.; Streptococcus pyogenes (GC 4563), broth dilution, 18 hours at 35° C.
  MIC Streptococcus pyogenes (GC 4563): 4 µg/mL (≈ 3.41 µM)
Streptococcus sp.; [1]
  MIC Streptococcus agalactiae (GC 4564): 16 µg/mL (≈ 13.6 µM)
  MIC Streptococcus pneumoniae (ATCC 6301): 8 µg/mL (≈ 6.81 µM)
  MIC Streptococcus pneumoniae (GC 1894): 8 µg/mL (≈ 6.81 µM)
  MIC Streptococcus pneumoniae (GC 4565): 16 µg/mL (≈ 13.6 µM)
  MIC Streptococcus pyogenes (GC 4563): 4 µg/mL (≈ 3.41 µM)
Escherichia coli; [1]
  MIC Escherichia coli (GC 4560): 16 µg/mL (≈ 13.6 µM)
